According to US8802702B2, “Compounds for reducing drug resistance and uses thereof” (The General Hospital Corporation, priority 2009, dated 2014):
Entries after “also recorded” stand apart in the source; their conditions may differ. Where two headings read alike, the source gives them in different places.

Columns and labels:
[1] = system: SKOV-3TR and KHOSR2 cells; experiment: Flow cytometry of intracellular doxorubicin retention; assay type: cell-based, human; conditions: 5 μM doxorubicin, NSC23925 0.5 μM, 1 hour
Method: FIG. 9 depicts the intracellular retention of doxorubicin from multidrug resistant SKOV-3TR and KHOSR2 cells in the presence of 5 μM doxorubicin with or without treatment of NSC23925 (0.5 μM). Cells were treated for 1 hour before the flow cytometry analysis.

[2] = system: OVCAR8TR cells; experiment: Reversal of drug resistance, cytotoxicity (MTT) assay in OVCAR8TR; assay type: cell-based, human; conditions: for IC50: Homo sapiens
[3] = system: SKOV-3 and SKOV-3TR cells; experiment: Cytotoxicity of NSC23925 alone (MTT assay), SKOV-3/SKOV-3TR; assay type: cell-based, human
Method: Drug cytotoxicity was determined by MTT assay. […] Cells were treated with the NSC23925 in RPMI1640 complete media at the indicated concentrations. The relative sensitivity of each line to NSC23925 was determined by MTT assay. A: Nonspecific toxicity of NSC23925 on SKOV3 vs SKOV-3TR. B: Nonspecific toxicity of NSC23925 on OVCAR8 vs OVCAR8TR. Drug cytotoxicity was assessed in vitro using the MTT assay. SKOV-3 and SKOV-3TR cells were used herein. Briefly, 2×10^3 cells per well were plated in 96-well plates in culture medium (RPMI 1640 supplemented with 10% fetal bovine serum and penicillin/streptomycin) containing increasing concentrations of drug. […] The resulting formazan product was dissolved with acid-isopropanol and the absorbance at a wavelength of 490 nm (A490) was read on a SPECTRAmax® Microplate Spectrophotometer (Molecular Devices, Sunnyvale, Calif.). The absorbance values were normalized by assigning the value of the control line in the medium without drug to 1.0 and the value of the no cell control to 0. Experiments were performed in triplicate.

[4] = system: MDR cell lines where MDR1 (Pgp1) is highly expressed; experiment: Reversal of chemoresistance across panel of MDR cell lines with various anti-cancer agents
Method: Screening conditions in drug resistant cells were optimized in 96-well plates for optimal growth conditions, small molecular compound and drug concentration and assay times prior to screening. On day 1, drug resistant cells were seeded at 2×10^4 cells/well on 96-well plates and labeled with plates A, B, and incubated for 24 hr at 37° C. On day 2, plate A was treated with a test compound at 1 μM to each well without paclitaxel; Plate B was treated with both a test compound and paclitaxe at specifically prescribed concentrations. From day 4 to day 6, fresh medium was replaced with necessity as described above and evaluated for cytotoxicity under the microscope. On Day 6, the number of viable cells was evaluated for cytotoxicity in any wells under the microscope manually and final results were determined via […]96™ AQ One Solution Cell Cytotoxicity Assay (Promega, Madison, Wis.) by a SPECTRAIVIAX.™ Microplate Spectrophotometer (Molecular Devices, Sunnyvale, Calif.).
The general format was designed for screening the small molecular compound library and identifying novel drug resistant inhibitor. These include evaluation of each small molecular compound through a well studied multidrug resistant cell line SKOV-3TR. The experiments were conducted in two control plates (A and B) and one experimental plate (C) to permit plate-to-plate comparisons (FIG. 1). The control plates (plate A and B) were used to evaluate cytotoxicity of paclitaxel and small molecular compound itself, and to exclude compound that were lethal to the cells in the absence of chemotherapy drug. […] because the goal of this study was to identify small molecular compound that can reverse drug resistance and not to determine cell toxicity. […] Small molecular compound that were associated with cell survival in plate A and plate B and death in plate C were identified as “hits” and selected for further study.
Furthermore, other cell lines with non-Pgp1 mediated MDR mechanisms were tested (H69/AR cells that express MRP1, but not Pgp1, and MCF-7 MX cells that express BCRP, but not Pgp1) to evaluate the specificity of NSC23925.

[5] = system: Pgp1 mediated transport in SKOV-3TR cells; experiment: Duration of MDR reversal after incubation and washout; assay type: cell-based, human; conditions: overnight exposure 1 μM
Method: Drug cytotoxicity was determined by MTT assay.
The cells were then incubated for 4 days with addition of varying concentrations of paclitaxel. Final results were determined by MTT assay as described above.

[6] = system: SKOV-3 and OVCAR8 cells; experiment: Calcein AM drug efflux assay in parental drug-sensitive cells; assay type: cell-based, human; conditions: SKOV-3 and OVCAR8, do not overexpress Pgp1
Description: The VYBRANT™ multi-drug resistance assay kit (Invitrogen/Molecular Probes) was used to measure drug efflux properties of different resistant cell lines. This assay utilizes the fluorogenic dye calcein acetoxymethyl ester (calcein AM) as a substrate for efflux activity of Pgp1 or other membrane pump ABC proteins. Calcein AM is taken up by cells and hydrolyzed by cytoplasmic esterases to fluorescent calcein. Calcein AM is well retained in the cytosol. However, multi-drug resistant cells expressing high levels of Pgp1 rapidly extrude non-fluorescent calcein AM from the plasma membrane, reducing accumulation of fluorescent calcein in the cytosol. Drug sensitive and resistant cells (3×10^5) were cultured in 96-well plate for 24 hours and then incubated in 0.25 μM calcein AM in 150 μl total volume. After 30 minutes, the cells in plate were washed and centrifuged twice with 200 μl cold RPMI1640 culture medium, and cell fluorescence was measured at a […] on a SPECTRAMAX™ Microplate Spectrofluorometer (Molecular Devices).

[7] = value = anti-cancer drug used in conjunction

## COc1ccc(-c2cc(C(O)C3CCCCN3)c3ccccc3n2)cc1 (centres unmarked) [NSC23925, (2-(4-methoxyphenyl)quinolin-4-yl)(piperidin-2-yl)methanol]
[1]
  Accumulation of doxorubicin by flow cytometric analysis: increases the accumulation of doxorubicin
[2]; Doxorubicin, add NSC23925 0.1 μM
  fold-reversal of drug resistance, OVCAR8TR: (2.3) fold
[2]; Doxorubicin, add NSC23925 0.5 μM
  fold-reversal of drug resistance, OVCAR8TR: (5.3) fold
[2]; Doxorubicin, add NSC23925 1 μM
  fold-reversal of drug resistance, OVCAR8TR: (23) fold
[2]; ET-743, add NSC23925 0.1 μM
  fold-reversal of drug resistance, OVCAR8TR: (1.2) fold
[2]; ET-743, add NSC23925 0.5 μM
  fold-reversal of drug resistance, OVCAR8TR: (1.2) fold
[2]; ET-743, add NSC23925 1 μM
  fold-reversal of drug resistance, OVCAR8TR: (0.9) fold
[2]; Doxorubicin, add NSC23925 0.1 μM, read-out: OVCAR8TR IC50 of Doxorubicin
  IC50: 12400 ± 360 nM
[2]; Doxorubicin, add NSC23925 0.5 μM, read-out: OVCAR8TR IC50 of Doxorubicin
  IC50: 5200 ± 471 nM
[2]; Doxorubicin, add NSC23925 1 μM, read-out: OVCAR8TR IC50 of Doxorubicin
  IC50: 1220 ± 122 nM
[2]; ET-743, add NSC23925 0.1 μM, read-out: OVCAR8TR IC50 of ET-743
  IC50: 5 ± 1 nM
[2]; ET-743, add NSC23925 0.5 μM, read-out: OVCAR8TR IC50 of ET-743
  IC50: 5 ± 1 nM
[2]; ET-743, add NSC23925 1 μM, read-out: OVCAR8TR IC50 of ET-743
  IC50: 7 ± 2 nM
[2]; PM00104, add NSC23925 0.1 μM, read-out: OVCAR8TR IC50 of PM00104
  IC50: 8 ± 2 nM
[2]; PM00104, add NSC23925 0.5 μM, read-out: OVCAR8TR IC50 of PM00104
  IC50: 6 ± 2 nM
[2]; PM00104, add NSC23925 1 μM, read-out: OVCAR8TR IC50 of PM00104
  IC50: 5 ± 2 nM
[2]; Paclitaxel, add NSC23925 0.5 μM, read-out: OVCAR8TR IC50 of Paclitaxel
  IC50: 72 ± 46 nM
[2]; Paclitaxel, add NSC23925 1 μM, read-out: OVCAR8TR IC50 of Paclitaxel
  IC50: 28 ± 47 nM
[2]; PM00104, add NSC23925 0.1 μM
  fold-reversal of drug resistance, OVCAR8TR: (1) fold
[2]; PM00104, add NSC23925 0.5 μM
  fold-reversal of drug resistance, OVCAR8TR: (1.3) fold
[2]; PM00104, add NSC23925 1 μM
  fold-reversal of drug resistance, OVCAR8TR: (1.6) fold
[2]; Paclitaxel, add NSC23925 0.1 μM
  fold-reversal of drug resistance, OVCAR8TR: (2.7) fold
[2]; Paclitaxel, add NSC23925 1 μM
  fold-reversal of drug resistance, OVCAR8TR: (12.1) fold
[3]; <5-10 μM NSC23925 alone, cells lack Pgp1
  Cytotoxic effect of NSC23925 alone in parental SKOV-3: no cytotoxic effect
[3]; Homo sapiens, SKOV-3/SKOV-3TR, single agent, read-out: IC50 for NSC23925 (proliferation)
  IC50: 8000 nM
[3]; Pgp1-overexpressing SKOV-3TR cells, 72 hours, MTT
  Effect of verapamil on the cytotoxic effect of NSC23925: did not influence the cytotoxic effect
[3]; both sensitive and resistant cell lines
  Doses at which NSC23925 by itself is noncytotoxic: up to 10 μM
[3]; concluded from matched cell line IC50s and verapamil co-treatment
  Pgp1 transport substrate status: not a substrate of Pgp1
[4]; SKOV-3TR, OVCAR8TR, MCF-7TR, MESSA/Dx5, KHOS R2, U-2OSDR
  Reversal of chemoresistance in tumor types where MDR1 is highly expressed: reverses chemoresistance
[4]; agents unaffected by MDR1 mechanisms
  Effect on cytotoxicity of cisplatin and methotrexate: did not alter the cytotoxicity
[4]; [7]
  Reverse Drug Resistance by NSC23925: Decreased drug resistance (to the anti-cancer drug named in the cell): Vincristine; also recorded: Gemcitabine; also recorded: ET-743; also recorded: PM00104; also recorded: Paclitaxel; also recorded: Docetaxel; also recorded: Doxorubicin; also recorded: Daunorubicin
  Reverse Drug Resistance by NSC23925: No effect (on the anti-cancer drug named in the cell): Cisplatin; also recorded: Carboplatin; also recorded: Topotecan; also recorded: Methotrexate
[4]; with paclitaxel, docetaxel, doxorubicin, daunorubicin, gemcitabine, vincristine, ET-743 or PM00104
  Reversal of chemoresistance in conjunction with anti-cancer agents: significant reversal of chemoresistance
[5]
  Duration of inhibition of Pgp1 mediated transport after wash-out: at least 4 days
[6]
  Effect on accumulation of calcein AM in parental drug-sensitive cells: no evident effect
